Data taken from patent publication US9822115B2, “Nitrogen containing compounds and their use as antibacterial agents” (WOCKHARDT LIMITED, priority 2014, dated 2017).
Values after ≈ are worked out from the molar mass of the structure shown. Structures can show the parent of a compound that is named as a salt. Where two headings read alike, the source gives them in different places.

Legend:
[1] = system: K. pneumoniae H521 (KPC, SHV, TEM); assay: Antibacterial activity, MIC by agar dilution (CLSI); format: cell-based; conditions: Klebsiella pneumoniae
Procedure: (§1) The biological activity of representative compounds according to the invention against various bacterial strains was investigated. In a typical study, overnight grown bacterial cultures were diluted appropriately and inoculated on the agar media containing doubling dilutions of the test compounds. Observations for growth or no growth was performed after 16-20 hours of incubation at 35±2° C. in the ambient air. The overall procedure was performed as per Clinical and Laboratory Standards Institute (CLSI) recommendations, (Clinical and Laboratory Standards Institute (CLSI), Performance Standards for Antimicrobial Susceptibility Testing, 20th Informational Supplement, M07-A9, Volume 32, No. 2, 2012). Molten Mueller Hinton Agar (BD, USA) containing serial dilutions of each antibacterial agent were poured on to the plates and allowed to solidify. Appropriate suspensions from the freshly grown cultures were prepared in normal saline so that about 10^4 CFU/spot of the organism was delivered on to the drug containing agar plates using automated multipoint inoculator (Mast, UK). The plates were incubated in Biochemical oxygen demand (BOD) incubator at 37° C. for 18 hours and then examined for growth.
(§2) The strains selected for study included E. coli NCTC 13353 producing CTX-M15 and OXA-1 beta-lactamase enzymes; K. pneumoniae H521 producing KPC, SHV, TEM beta-lactamase enzymes; and K. pneumoniae S48 producing NDM, SHV, TEM beta-lactamase enzymes. The activities are expressed as Minimum Inhibitory Concentrations (MICs) (mcg/ml).

[2] = system: E. coli NCTC 13353 (CTX-M15, OXA-1); assay: as above; format: cell-based; conditions: Escherichia coli
Procedure: as §1
as §2, with “Table 2 details the antibacterial activity of representative compounds according to invention, against various Multi Drug Resistant (MDR) Gram-negative bacterial strains. The strains” for “The strains”

[3] = system: K. pneomoniae S48 (NDM, SHV, TEM); assay: as above; format: cell-based, K. pneumoniae; conditions: Klebsiella pneumoniae
Procedure: as §1, §2

[4] = molecular target: T1, Class D beta-lactamase, A. baumannii NCTC 13301 (OXA 23) (Acinetobacter baumannii, UniProt Q9L4P2); assay: Beta-lactamase enzyme inhibition (nitrocefin, crude enzyme); format: biochemical
T1 construct: preincubated mixture of crude enzyme and the agents; endogenous in cells; host or cells: A. baumannii NCTC 13301
T1 sequence (Q9L4P2 18-273): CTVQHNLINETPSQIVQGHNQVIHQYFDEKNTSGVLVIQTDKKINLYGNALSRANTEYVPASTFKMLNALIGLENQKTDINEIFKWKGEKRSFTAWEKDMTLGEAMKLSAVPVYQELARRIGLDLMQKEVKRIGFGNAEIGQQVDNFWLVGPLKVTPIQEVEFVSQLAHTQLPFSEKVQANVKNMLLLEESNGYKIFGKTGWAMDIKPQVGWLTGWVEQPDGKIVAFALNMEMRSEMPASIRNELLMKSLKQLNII
Procedure: (§3) Determination of enzyme inhibition activity: Concentration of the inhibitor required to inhibit 50% of enzymatic activity was measured by adding a chromogenic substrate, Nitrocefin (100 uM, 5 min) to the preincubated mixture of crude enzyme and the agents (37° C., 10 min). Absorbance was measured at 485 nm by UV-spectrophotometer. The IC50 was calculated by plotting absorbance against concentration through Sigmoidal dose response curve using Graph Pad software.
(§4) The enzyme inhibition was expressed as IC50.

[5] = molecular target: T2, Class A beta-lactamase, K. pneumoniae ATCC 700603 (SHV 18) (Klebsiella pneumoniae, UniProt P0AD64, E235K/G234A/R39S); assay: biochemical
T2 construct: preincubated mixture of crude enzyme and the agents; endogenous in cells; host or cells: K. pneumoniae ATCC 700603
T2 sequence (P0AD64 22-286 R39S/G234A/E235K): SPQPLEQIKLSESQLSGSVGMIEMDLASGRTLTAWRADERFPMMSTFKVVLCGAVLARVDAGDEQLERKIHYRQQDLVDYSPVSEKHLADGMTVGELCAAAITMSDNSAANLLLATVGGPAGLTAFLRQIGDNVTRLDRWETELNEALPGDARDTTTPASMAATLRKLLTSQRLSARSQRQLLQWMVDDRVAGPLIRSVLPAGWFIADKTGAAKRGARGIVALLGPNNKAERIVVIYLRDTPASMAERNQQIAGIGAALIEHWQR
Procedure: as §3, §4

[6] = 18 h, Table 2, K. pneumoniae H521 (KPC, SHV, TEM), read-out: MIC
[7] = NCTC13353, 18 h, Table 2, E. Coli NCTC 13353 (CTX-M15, OXA-1), read-out: MIC
[8] = 18 h, Table 2, K. pneomoniae S48 (NDM, SHV, TEM), read-out: MIC
[9] = Class D A. baumannii NCTC 13301 (OXA 23), read-out: Beta-lactamase enzyme inhibition IC50
[10] = Table 2, K. pneumoniae H521 (KPC, SHV, TEM), read-out: MIC
[11] = NCTC13353, Table 2, E. Coli NCTC 13353 (CTX-M15, OXA-1), read-out: MIC
[12] = Table 2, K. pneomoniae S48 (NDM, SHV, TEM), read-out: MIC

Row | SMILES | MIC [1, 6] [µg/mL] | MIC [2, 7] [µg/mL] | MIC [3, 8] [µg/mL] | IC50 [4, 9] [nM] | IC50 [5] [nM] | further results
1 | O=C(CCCc1ccccc1)NNC(=O)[C@@H]1CC[C@@H]2CN1C(=O)N2OS(=O)(=O)O [Example 6, sodium salt of (2S,5R)-sulfuric acid mono-[2-(N′-(4-phenyl-butanoyl)-hydrazinocarbonyl)-7-oxo-1,6-diaza-bicylo[3.2.1]oct-6-yl]ester] | > 32 | 16 | 32 | 207 |  | 
2 | O=C(Cc1ccccc1O)NNC(=O)[C@@H]1CC[C@@H]2CN1C(=O)N2OS(=O)(=O)O [Example 19, sodium salt of (2S,5R)-sulfuric acid mono-[2-(N′-(2-hydroxyphenyl-acetyl)-hydrazinocarbonyl)-7-oxo-1,6-diaza-bicyclo[3.2.1]oct-6-yl]ester] | 2 | 1 | 2 | 677 | 13 | 
3 | O=C(CCc1ccccc1)NNC(=O)[C@@H]1CC[C@@H]2CN1C(=O)N2OS(=O)(=O)O [Example 5] | > 32 | 8 (≈ 19.4 µM) | 8 (≈ 19.4 µM) | 600 | 9 | 
4 | CN(C)c1ccc(CC(=O)NNC(=O)[C@@H]2CC[C@@H]3CN2C(=O)N3OS(=O)(=O)O)cc1 [Example 13, sodium salt of (2S,5R)-sulfuric acid mono-[2-(N′-(4-N,N-dimethylaminophenyl-acetyl)-hydrazinocarbonyl)-7-oxo-1,6-diaza-bicyclo[3.2.1]oct-6-yl]ester] | > 32 | 8 | 8 | 629 | 62 | 
5 | CC(C)(C)C(=O)Oc1ccc(CC(=O)NNC(=O)[C@@H]2CC[C@@H]3CN2C(=O)N3OS(=O)(=O)O)cc1 [Example 22, sodium salt of 2,2-dimethyl-propionic acid 4-{2-oxo-2-[N′-((2S,5R)-7-oxo-6-sulphooxy-1,6-diaza-bicyclo[3.2.1]octane-2-carbonyl)-hydrazino]ethyl}-phenyl ester] | 32 | 16 | 32 | 973 | 25 | 
6 | O=C(Cc1ccc(OC(=O)NC2CCCCC2)cc1)NNC(=O)[C@@H]1CC[C@@H]2CN1C(=O)N2OS(=O)(=O)O [Example 28, sodium salt of (2S,5R)-cyclohexyl-carbamic acid 4-{2-oxo-2-[N′-(7-oxo-6-sulphooxy-1,6-diaza-bicyclo[3.2.1]octane-2-carbonyl)-hydrazino]ethyl}-phenyl ester] |  |  |  |  | 8 | MIC ([1]; 18 h): 32 µg/mL; MIC ([2]; NCTC13353, 18 h): 8 µg/mL; MIC ([3]; 18 h): 16 µg/mL; IC50 [4]: 243 nM
7 | O=C(Cc1ccc(Cl)cc1)NNC(=O)[C@@H]1CC[C@@H]2CN1C(=O)N2OS(=O)(=O)O [Example 9, sodium salt of (2S,5R)-sulfuric acid mono-[2-(N′-(4-chlorophenyl-acetyl)-hydrazinocarbonyl)-7-oxo-1,6-diaza-bicyclo[3.2.1]oct-6-yl]ester] |  |  |  | 173 |  | MIC ([1]; 18 h): 4 µg/mL; MIC ([2]; NCTC13353, 18 h): 1 µg/mL; MIC ([3]; 18 h): 1 µg/mL
8 | NC(=O)[C@@H]1CC[C@@H]2CN1C(=O)N2OS(=O)(=O)O [Avibactam, avibactam, reference compound] |  |  |  |  | 98 | 
9 | O=C(Cc1ccccc1)NNC(=O)[C@@H]1CC[C@@H]2CN1C(=O)N2OS(=O)(=O)O [Example 4] |  |  |  | 416 | 19 | MIC ([1]; 18 h): > 32 µg/mL; MIC ([2]; NCTC13353, 18 h): 1 µg/mL (≈ 2.51 µM); MIC ([3]; 18 h): 2 µg/mL (≈ 5.02 µM)
10 | CC(C)(C)OC(=O)CC(=O)Oc1ccc(CC(=O)NNC(=O)[C@@H]2CC[C@@H]3CN2C(=O)N3OS(=O)(=O)O)cc1 [Example 26, sodium salt of (2S,5R)-malonic acid tert-butyl ester 4-{2-oxo-2-[N′-(7-oxo-6-sulphooxy-1,6-diaza-bicyclo[3.2.1]octane-2-carbonyl)-hydrazino]ethyl}-phenyl ester] | 4 | 2 | 2 | 370 | 25 | 
11 | O=C(Cc1ccc(O[C@H]2CCNC2)cc1)NNC(=O)[C@@H]1CC[C@@H]2CN1C(=O)N2OS(=O)(=O)O [Example 64] |  |  |  | 432 | 47 | MIC [1, 10]: 1 µg/mL (≈ 2.07 µM); MIC [2, 11]: 0.5 µg/mL (≈ 1.03 µM); MIC [3, 12]: 0.5 µg/mL (≈ 1.03 µM)
12 | COc1ccc(CC(=O)NNC(=O)[C@@H]2CC[C@@H]3CN2C(=O)N3OS(=O)(=O)O)cc1 [Example 14, sodium salt of (2S,5R)-sulfuric acid mono-[2-(N′-(4-methoxyphenyl-acetyl)-hydrazinocarbonyl)-7-oxo-1,6-diaza-bicyclo[3.2.1]oct-6-yl]ester] | 8 | 1 | 1 | 105 |  | 
13 | CC(C)[C@H](NC(=O)Oc1ccc(CC(=O)NNC(=O)[C@@H]2CC[C@@H]3CN2C(=O)N3OS(=O)(=O)O)cc1)C(=O)OC(C)(C)C [Example 29, sodium salt of (S)-3-methyl-2-(4-{2-oxo-2-[N′-((2S,5R)-7-oxo-6-sulphooxy-1,6-diaza-bicyclo[3.2.1]-octane-2-carbonyl)-hydrazino]-ethyl}-phenoxycarbonylamino)-butyric acid tert-butyl ester] |  |  |  |  | 327 | MIC [1]: 16 µg/mL; MIC ([2]; NCTC13353): 4 µg/mL; MIC [3]: 4 µg/mL; IC50 [4]: 2850 nM
14 | O=C(Cc1ccccn1)NNC(=O)[C@@H]1CC[C@@H]2CN1C(=O)N2OS(=O)(=O)O [Example 8, Sodium salt of (2S,5R)-Sulfuric acid mono-[2-(N′-(pyridine-2-yl-acetyl)-hydrazinocarbonyl)-7-oxo-1,6-diaza-bicyclo[3.2.1]oct-6-yl] ester] |  |  |  | 466 | 25 | MIC [1, 10]: 2 µg/mL; MIC [2, 11]: 0.5 µg/mL; MIC [3, 12]: 0.5 µg/mL
15 | N#Cc1ccc(CC(=O)NNC(=O)[C@@H]2CC[C@@H]3CN2C(=O)N3OS(=O)(=O)O)cc1 [Example 10, sodium salt of (2S,5R)-sulfuric acid mono-[2-(N′-(4-cyanophenyl-acetyl)-hydrazinocarbonyl)-7-oxo-1,6-diaza-bicyclo[3.2.1]oct-6-yl]ester] | 4 | 1 | 1 | 805 | 162 | 
16 | O=C(Cc1ccc(O)cc1F)NNC(=O)[C@@H]1CC[C@@H]2CN1C(=O)N2OS(=O)(=O)O [Example 18, sodium salt of (2S,5R)-sulfuric acid mono-[2-(N′-(2-fluoro-4-hydroxyphenyl-acetyl)-hydrazinocarbonyl)-7-oxo-1,6-diaza-bicyclo[3.2.1]oct-6-yl]ester] | 2 | 0.5 | 0.5 | 146 | 154 | 
17 | CNCCOc1ccccc1CC(=O)NNC(=O)[C@@H]1CC[C@@H]2CN1C(=O)N2OS(=O)(=O)O [Example 36, (2S,5R)-sulfuric acid mono-[2-(N′-{2-[2-(2-N-methylamino-ethoxy)-phenyl]-acetyl}-hydrazinocarbonyl)-7-oxo-1,6-diaza-bicyclo[3.2.1]oct-6-yl]ester] | 2 (≈ 4.24 µM) | 1 (≈ 2.12 µM) | 1 (≈ 2.12 µM) | 2170 | 71 | 
18 | CNCCOc1cccc(CC(=O)NNC(=O)[C@@H]2CC[C@@H]3CN2C(=O)N3OS(=O)(=O)O)c1 [Example 37, (2S,5R)-sulfuric acid mono-[2-(N′-{2-[3-(2-N-methylamino-ethoxy)-phenyl]-acetyl}-hydrazinocarbonyl)-7-oxo-1,6-diaza-bicyclo[3.2.1]oct-6-yl]ester] | 1 (≈ 2.12 µM) | 0.5 (≈ 1.06 µM) | 0.5 (≈ 1.06 µM) | 938 | 36 | 
